# Measured values published in paper PMC9530963, “A cathelicidin antimicrobial peptide from Hydrophis cyanocinctus inhibits Zika virus infection by downregulating expression of a viral entry factor” (The Journal of Biological Chemistry, 2022).
# Assays:
# ZIKV [1] = assay: Antiviral activity of Hc-CATH against ZIKV in vitro (peptide present during and after infection); type: cell-based, ZIKV strain PRVABC59
# Procedure: Figure 1 Hc-CATH inhibits ZIKV infection in vitro. A, schematic diagram of B–H. B–H, protective effect of Hc-CATH on ZIKV infection in vitro. Vero cells were seeded in 24-well plates (5 × 10^4 cells/well). Cells were infected with ZIKV (MOI = 1), and Hc-CATH (1.25, 2.5, and 5 μM), AC5 (2.5 and 5 μM), LL-37 (2.5 μM), or same volume of PBS (peptide solvent) was added and incubated at 37 °C for 2 h. Then the cells were washed with PBS and transferred with fresh DMEM containing 2% FBS and the same concentration of peptides. After culture at 37 °C for 48 h, image of ZIKV-caused cytopathic effect was taken (B, the scale bar represents 200 μm), the percentage of ZIKV-caused cytopathic effect was quantified by CCK-8 (C), intracellular ZIKV RNA (D), NS3 protein (E, upper panel: immunoblots, lower panel: ratios analyzed by ImageJ), E protein (F, the scale bar represents 50 μm), and extracellular ZIKV titer (G and H) was tested by qPCR, Western blot, immunofluorescence staining, and plaque-forming assay, respectively. The raw data files used in the creation of G are presented in Fig. S3. ∗p < 0.05, ∗∗p < 0.01, ∗∗∗p < 0.001, ns, not significant.
# Vero cells were seeded in 24-well plates (5 × 10^4 cells/well). After cells were adhered to plates, cells were incubated with ZIKV (multiplicity of infection [MOI] = 1) in the presence of noncytotoxic concentration of Hc-CATH, AC5 (positive control), LL-37 (positive control), or PBS (solvent of peptide). After incubation at 37 °C for 2 h, the culture media were removed, cells were washed with PBS and transferred with fresh culture media containing 2% FBS, and Hc-CATH, AC5, LL-37, or PBS was supplemented to each well. After incubation at 37 °C for 48 h, cytopathic effect was observed by microscopy, and Cell Counting Kit-8 was applied to determine the percent of cytopathic effect. The percent of cytopathic effect was calculated as (Asham –Atreatment)/Asham × 100 (where Asham represents the absorbance of uninfected cells, Atreatment represents the absorbance of PBS- or peptide-treated cells post ZIKV infection). The intracellular ZIKV RNA, NS3 protein, E protein, and extracellular ZIKV titer were tested by qPCR, WB, IF, and plaque-forming assay, respectively ([28]).
# ZIKV [2] = assay: Susceptibility of Vero cells to ZIKV (peptide pretreatment of cells); type: cell-based, ZIKV strain PRVABC59; conditions: 2.5 μM, Vero cells incubated 2 h with peptide before ZIKV (MOI = 1), 48 h
# Procedure: Figure 2 Hc-CATH decreases the susceptibility of Vero cells to ZIKV.A, schematic diagram of B–G (Hc-CATH-Vero-pre). B–G, pretreatment with Hc-CATH before ZIKV infection decreases the susceptibility of Vero cells to ZIKV. Vero cells were seeded in 24-well plates (5 × 10^4 cells/well) and cultured in DMEM containing 2% FBS. Hc-CATH (2.5 μM), AC5 (2.5 μM), LL-37 (2.5 μM), or same volume of PBS (peptide solvent) was added to cells and incubated at 37 °C for 2 h. Vero cells were washed three times with PBS, and ZIKV (MOI = 1) was added to cells. After incubation at 37 °C for 2 h, Vero cells were washed with PBS and transferred with fresh DMEM containing 2% FBS. After culture for 48 h, intracellular ZIKV RNA (B), NS3 protein (C and D, C: immunoblots, D: ratio analyzed by ImageJ), E protein (E, the scale bar represents 50 μm), and extracellular ZIKV titer (F and G) was tested by qPCR, Western blot, immunofluorescence staining, and plaque-forming assay, respectively.
# Vero, A549, or U251 cells were incubated with peptide or PBS at 37 °C for 2 h. The cells were washed three times with PBS and incubated with ZIKV (MOI = 1) at 37 °C for 2 h. The culture media were replaced with fresh DMEM containing 2% FBS. After incubation at 37 °C for 48 h, intracellular ZIKV RNA, NS3 protein, E protein, and extracellular ZIKV titer were detected by qPCR, WB, IF, and plaque-forming assay, respectively ([28]).
# ZIKV [3] = conditions: i.v. peptide 2 h after i.v. ZIKV 10^6 PFU/mouse, qPCR
# Description: At 4, 8, and 3 days post ZIKV inoculation, C57BL/6J mice, Ifnar1^−/− mice, and pregnant C57BL/6J mice were sacrificed, respectively. Tissues and fetal mice were collected for testing ZIKV RNA by qPCR. ns, not significant, ∗p < 0.05, ∗∗p < 0.01, and ∗∗∗p < 0.001. Hc-CATH, a cathelicidin antimicrobial peptide identified from the sea snake Hydrophis cyanocinctus; PFU, plaque-forming unit; qPCR, quantitative PCR; ZIKV, Zika virus.
# To evaluate the therapeutic efficacy of Hc-CATH against ZIKV infection, C57BL/6J mice, Ifnar1^−/− mice, and pregnant C57BL/6J mice were intravenously administrated with Hc-CATH at 2 h after intravenous injection of ZIKV (10^6 PFU/mouse). C57BL/6J mice, Ifnar1^−/− mice, and pregnant C57BL/6J mice were sacrificed at 4, 8, and 3 days post ZIKV inoculation, respectively. Tissues and fetal mice were collected for testing ZIKV RNA level by qPCR.
sequence,measurement,setting,value
KFFKRLLKSVRRAVKKFRKKPRLIGLSTLL [Hc-CATH],reduction of NS3 protein,"ZIKV [1]; 5 μM, Vero cells, ZIKV MOI = 1, 48 h, Western blot, ImageJ",~67.4%
same,reduction of extracellular ZIKV particles,"ZIKV [1]; 5 μM, Vero cells, ZIKV MOI = 1, 48 h, plaque-forming assay",~71.6%
same,reduction of intracellular ZIKV RNA,"ZIKV [1]; 5 μM, Vero cells, ZIKV MOI = 1, 48 h, qPCR",~52.7%
same,reduction of ZIKV-caused cytopathic effect,"ZIKV [1]; 5 μM, Vero cells, ZIKV MOI = 1, peptide during 2 h infection and 48 h culture, CCK-8",about 70.3%
same,anti-ZIKV efficacy in vitro compared with positive peptides,ZIKV [1]; Vero cells (Fig. 1),weaker than that of AC5 and LL-37
same,"reduction of ZIKV NS3 protein, cells pre-incubated with peptide",ZIKV [2]; Western blot,~50.1%
same,"reduction of ZIKV particles, cells pre-incubated with peptide",ZIKV [2]; plaque-forming assay,~62.2%
same,"reduction of ZIKV RNA, cells pre-incubated with peptide",ZIKV [2]; qPCR,about 46.1%
same,"ZIKV replication in C57BL/6J mice, therapeutic","ZIKV [3]; 4 days, tissue ZIKV RNA",significantly attenuated ZIKV replication
same,"ZIKV replication in Ifnar1−/− mice, therapeutic","ZIKV [3]; 8 days, tissue ZIKV RNA",significantly attenuated ZIKV replication
same,"ZIKV replication in fetal placenta and fetal mice, therapeutic","ZIKV [3]; pregnant C57BL/6J mice, 3 days",significantly attenuated ZIKV replication
